The subject of one series is L1210 leukemia cells. The experiment in a line: cells. The conditions noted are these: for IC50: Mus musculus. Type of series: cell-based, mouse. As for the experimental part:
The cytotoxic action of the compounds can be established in various test systems such as, for example, in the soft agar colony test on mouse leukemia cells in vitro.
Formation of colonies of L1210 leukemia cells in soft agar:
In this test, substances having cytostatic activity bring about a reduction in the observed number of colonies compared with an untreated control. The details of the test procedure are as follows:
500 L1210 leukemia cells per plate are incubated with various concentrations of the compound of the formula II, obtained as in Example 3, as test substance at 37° C. for 1 hour. The cells are then washed twice with McCoy 5A medium and finally, after addition of 0.3% agar, poured into Petri dishes. Controls are incubated merely with fresh medium. In addition, in place of the incubation for 1 hour, various concentrations of the test substance are admixed to the upper agar layer, in order thus to acheive continuous exposure of the cells throughout the incubation time. After the agar has solidified, the plates are incubated in an incubator at 37° C. for 7 days (5% CO2, 95% relative humidity). The number of resultant colonies with a diameter >60μ is then counted. The results are expressed as the quotient of the number of colonies on treated agar plates and the number of colonies on the untreated control. The IC50 was obtained, as a measure of the activity of the test substance, from the dose-effect curve thus obtained. The comparison substance used in this test is the cytostatic adriamycin.

The conditions of series [1]: in words; cited from earlier work.
The test system of a further series is leukemia cells. The conditions noted are these: cited from earlier work.
The mark [2] stands for this setting: L1210, 168 h, continuous exposure, substance in upper agar layer, 7 days at 37° C., read-out: Stem cell assay cont. IC50.
Setting [3] is: L1210, incubation for 1 hour at 37° C., then washed, 7 days in agar, read-out: Stem cell assay 1 h IC50.

The source of these data is patent US4849409A, “Diels-alder adduct from streptazoline and naphthoquinones and its oxidation products, which have cytotoxic and antimicrobial activity and which act against protozoa” (Hoechst Aktiengesellschaft, priority 1986, dated 1989).

≈ marks a conversion by molar mass, not a printed value. Read-outs that look alike come from different tables or passages of the source.

As usually defined, the IC50 is the midpoint of a concentration-inhibition curve.

For the compound `COc1cccc2c1C(=O)c1c(O)c3c(c(O)c1C2=O)C[C@@](O)(C(=O)CO)C[C@@H]3O[C@H]1C[C@H](N)[C@H](O)[C@H](C)O1` [Adriamycin], the figures for the IC50 in the series on L1210 leukemia cells (setting [2]) and in the series on L1210 leukemia cells (setting [3]) were 0.02 µg/mL (≈ 0.0368 µM) and 0.04 µg/mL (≈ 0.0736 µM), respectively.

On to `CC=C1C2=CCCN3C(=O)OC(C1O)C23` (stereo not shown) [Streptazoline], for which, in the series with L1210 leukemia cells, the “cytotoxicity (assessment)” value is “no cytotoxicity worthy of note”. The IC50 with L1210 leukemia cells (setting [2]) and in the series on L1210 leukemia cells (setting [3]) was 10 µg/mL (≈ 48.3 µM) each time. Further, the antibiotic action result in series [1] is “only a very weak antibiotic”. For the same compound, the cytotoxic action entry in the series with leukemia cells is recorded as “no cytotoxic action”.

Consider `CC1C2=C(C(=O)c3c(O)ccc(O)c3C2=O)[C@@H]2CCN3C(=O)O[C@@H]4[C@@H](O)C1=C2[C@@H]43` (stereo partly shown) [Test substance], for which, in the series on L1210 leukemia cells, the “cytotoxicity (assessment)” value is listed as “cytotoxicity comparable to that of adriamycin”. Further, the IC50 came to 0.04 µg/mL (≈ 0.101 µM) in the series with L1210 leukemia cells (setting [2]) and 0.26 µg/mL (≈ 0.658 µM) in the series with L1210 leukemia cells (setting [3]).
